Where two headings read alike, the source gives them in different places. One block for each compound: values may come before it.
What was measured:
Bmi-1 [1] = test: Cell Model Assay: Bmi-1 expression in HT1080; assay type: cell-based, human; conditions: HT1080 (fibrosarcoma)
Method: (§1) Using assay conditions known to those skilled in the art, the ability of the compounds described herein to reduce Bmi-1 expression in HT1080 (fibrosarcoma), U87-MG (glioblastoma), T98G (glioblastoma), K562 (chronic myelogenous leukemia) and KG1 (acute myelogenous leukemia) cell lines was tested (at test compound concentrations calculated from the ELISA assay data shown in Example 1) compared to puromycin as a control to provide the EC50 values shown in Table 2. The term “ND” means that data was not determined.

Bmi-1 [2] = test: Cell Model Assay: Bmi-1 expression in T98G; assay type: cell-based; conditions: T98G (glioblastoma)
Method: as §1

[3] = system: Jeko, Mino and Rec-1 cells; test: cells; assay type: cell-based; conditions: 72 h, read-out: decrease in cell viability
Bmi-1 [4] = test: Cell Model Assay: Bmi-1 expression in U87-MG; assay type: cell-based; conditions: U87-MG (glioblastoma)
Method: as §1

Bmi-1 [5] = test: Sandwich ELISA Assay (Bmi-1 ELISA in HT-1080 cells); assay type: cell-based, human
In short: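 Lysate Bmi-1 was quantified against a recombinant GST-Bmi-1 standard (0-8000 pg/mL) by sandwich ELISA read at OD450 with OD570 reference. The ELISA used mouse monoclonal capture, rabbit anti-Bmi-1, HRP anti-rabbit IgG and TMB. Before lysis, HT-1080 cells seeded at 8000/well were exposed to compounds for 40-48 h at 37°C with 0.5% final DMSO.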

MM cell line = test: Multiple Myeloma Assay; assay type: cell-based; conditions: 72 hrs in culture
MCL-Rec1 = test: Mantle Cell Lymphoma Assay: cytotoxicity, Rec-1; assay type: cell-based; conditions: 72 hrs; for viability at 0.004 µM / viability at 0.037 µM / viability at 0.11 µM / viability at 0.33 µM / viability at 1 µM / viability at 3 µM: Homo sapiens, read-out: Cell Viability (%)
Source text: MCL cell lines Jeko, Mino, and Rec-1 were provided by American Type Culture Collection: The Bioresource Center (Manassas, Va.). […] Carlsbad, Calif.) in T-75 culture flasks. Cell concentration was maintained between 2 to 3×10^5 cells/mL. Early passage cells (passages 2-4) were used for all experiments. Ficoll-Histopaque density sedimentation (Sigma Aldrich) was used for separation of debris and purification of cell lines prior to experiments. […] The cytotoxic effect of test compounds on the MCL-cell lines was assessed by measuring cell concentration and cell viability using a Beckman Coulter Vi-Cell Counter. Controls and treated cells were harvested and counted at day 3.

SMILES: COc1cc(Br)c(Nc2nc(-c3c(C)nc4ncccn34)cs2)c(Br)c1 [Cpd 1, N-(2,6-dibromo-4-methoxyphenyl)-4-(2-methylimidazo[1,2-a]pyrimidin-3-yl)thiazol-2-amine]
EC50 (Bmi-1 [1]): 390 nM
EC50 (Bmi-1 [2]): 220 nM
cytotoxicity at 0.08 µM ([3]; Jeko, Mino and Rec-1 cells, 80 nM, 75 nM and 80 nM, after 3 days of treatment): 70 to 90%
EC50 (Bmi-1 [4]): 420 nM
IC50 (Bmi-1 [5]): < 500 nM
Cell Concentration, MM cell line (MM cell line; dose 0.004 μM): 1.02 ± 0.03 ×10^6
viability at 0.004 µM (MM cell line; dose 0.004 μM): 90.07 ± 0.34%
Cell Concentration, MM cell line (MM cell line; dose 0.037 μM): 1.06 ± 0.01 ×10^6
viability at 0.037 µM (MM cell line; dose 0.037 μM): 89.53 ± 0.71%
Cell Concentration, MM cell line (MM cell line; dose 0.11 μM): 1.13 ± 0.02 ×10^6
viability at 0.11 µM (MM cell line; dose 0.11 μM): 90.33 ± 0.1%
Cell Concentration, MM cell line (MM cell line; dose 0.33 μM): 1.10 ± 0.02 ×10^6
viability at 0.33 µM (MM cell line; dose 0.33 μM): 90.63 ± 0.28%
Cell Concentration, MM cell line (MM cell line; dose 1 μM): 0.54 ± 0.03 ×10^6
viability at 1 µM (MM cell line; dose 1 μM): 85.4 ± 0.58%
Cell Concentration, MM cell line (MM cell line; dose 3 μM): 0.39 ± 0.02 ×10^6
viability at 3 µM (MM cell line; dose 3 μM): 79.03 ± 0.45%
viability at 0.004 µM (MCL-Rec1; MCL-Rec1, 0.004 μM): 91.9 ± 0.5%
viability at 0.037 µM (MCL-Rec1; MCL-Rec1, 0.037 μM): 91.7 ± 0.4%
viability at 0.11 µM (MCL-Rec1; MCL-Rec1, 0.11 μM): 91.7 ± 0.2%
viability at 0.33 µM (MCL-Rec1; MCL-Rec1, 0.33 μM): 90.9 ± 0.2%
viability at 1 µM (MCL-Rec1; MCL-Rec1, 1 μM): 85 ± 0.6%
viability at 3 µM (MCL-Rec1; MCL-Rec1, 3 μM): 56.3 ± 0.4%
Cell Concentration (×10^6) (MCL-Rec1; MCL-Rec1, 0.004 μM): 1.66 ± 0.12 ×10^6
Cell Concentration (×10^6) (MCL-Rec1; MCL-Rec1, 0.037 μM): 1.74 ± 0.05 ×10^6
Cell Concentration (×10^6) (MCL-Rec1; MCL-Rec1, 0.11 μM): 1.73 ± 0.02 ×10^6
Cell Concentration (×10^6) (MCL-Rec1; MCL-Rec1, 0.33 μM): 1.66 ± 0.01 ×10^6
Cell Concentration (×10^6) (MCL-Rec1; MCL-Rec1, 1 μM): 0.96 ± 0.08 ×10^6
Cell Concentration (×10^6) (MCL-Rec1; MCL-Rec1, 3 μM): 0.32 ± 0.01 ×10^6

EC50 (Bmi-1 [1]): 3 nM
EC50 (Bmi-1 [2]): < 4 nM
EC50 (Bmi-1 [4]): 8 nM
IC50 (Bmi-1 [5]): < 500 nM
SMILES: COc1ccc(Nc2nc(-c3c(C)nc4ncccn34)cs2)cc1 [Cpd 14, N-(4-methoxyphenyl)-4-(2-methylimidazo[1,2-a]pyrimidin-3-yl)thiazol-2-amine]
cytotoxicity at 0.08 µM [3]: 70 to 90%
Cell Concentration, MM cell line (MM cell line; dose 0.004 μM): 0.84 ± 0.01 ×10^6
viability at 0.004 µM (MM cell line; dose 0.004 μM): 84.53 ± 0.4%
Cell Concentration, MM cell line (MM cell line; dose 0.037 μM): 0.22 ± 0.00 ×10^6
viability at 0.037 µM (MM cell line; dose 0.037 μM): 54.4 ± 0.98%
Cell Concentration, MM cell line (MM cell line; dose 0.11 μM): 0.21 ± 0.01 ×10^6
viability at 0.11 µM (MM cell line; dose 0.11 μM): 54.9 ± 2.79%
Cell Concentration, MM cell line (MM cell line; dose 0.33 μM): 0.21 ± 0.01 ×10^6
viability at 0.33 µM (MM cell line; dose 0.33 μM): 57.7 ± 1.33%
Cell Concentration, MM cell line (MM cell line; dose 1 μM): 0.24 ± 0.01 ×10^6
viability at 1 µM (MM cell line; dose 1 μM): 60.9 ± 1.26%
Cell Concentration, MM cell line (MM cell line; dose 3 μM): 0.25 ± 0.01 ×10^6
viability at 3 µM (MM cell line; dose 3 μM): 59.9 ± 1.32%
viability at 0.004 µM (MCL-Rec1; MCL-Rec1, 0.004 μM): 88.1 ± 0.88%
viability at 0.037 µM (MCL-Rec1; MCL-Rec1, 0.037 μM): 84.5 ± 0.66%
viability at 0.11 µM (MCL-Rec1; MCL-Rec1, 0.11 μM): 34.4 ± 3.25%
viability at 0.33 µM (MCL-Rec1; MCL-Rec1, 0.33 μM): 8.93 ± 0.15%
viability at 1 µM (MCL-Rec1; MCL-Rec1, 1 μM): 9.83 ± 0.33%
viability at 3 µM (MCL-Rec1; MCL-Rec1, 3 μM): 9.5 ± 0.35%
Cell Concentration (×10^6) (MCL-Rec1; MCL-Rec1, 0.004 μM): 1.52 ± 0.02 ×10^6
Cell Concentration (×10^6) (MCL-Rec1; MCL-Rec1, 0.037 μM): 1.22 ± 0.02 ×10^6
Cell Concentration (×10^6) (MCL-Rec1; MCL-Rec1, 0.11 μM): 0.24 ± 0.03 ×10^6
Cell Concentration (×10^6) (MCL-Rec1; MCL-Rec1, 0.33 μM): 0.05 ± 0.00 ×10^6
Cell Concentration (×10^6) (MCL-Rec1; MCL-Rec1, 1 μM): 0.05 ± 0.00 ×10^6
Cell Concentration (×10^6) (MCL-Rec1; MCL-Rec1, 3 μM): 0.05 ± 0.00 ×10^6

Reference: US8680113B2, “BMI-1 protein expression modulators” (PTC Therapeutics, Inc., priority 2008, dated 2014)
